One test addresses PI3Kα (Homo sapiens (Human), UniProt P42336). The following applies: read-out: PI3Kα AlphaScreen ® Ki. Background: Bead proximity is the source of the signal in Alpha formats.
Test [1] has as its target human mutant B-raf (HuBraf V600E) (Homo sapiens (Human), UniProt P15056, V600E). The following applies: at 10 μM compound concentration; POC = 100 − percent inhibition.
Experimental: B-Raf Homogenous Time Resolved Fluorescence (HTRF) Kinase Assay
The final concentration of the kinase reaction buffer is 50 mM Tris-HCl pH 7.5, 10 mM MgCl2, 0.5% glucose, 0.5 mM DTT, 0.01% BSA. […] The detection reaction proceeds for one hour and is read on a RubyStar (BMG Labtech, Durham, N.C.) counter. IC50s for the test compounds are generated using Excel-XLfit software. For single concentration percent of control (POC;=100−percent inhibition) assays, compounds were assayed as above at a single test concentration of 10 M test compound.
Test [2] relates to phosphorylation of Akt at Serine 473 in U87 MG cells. The experiment in a line: cells. The conditions noted are these: Homo sapiens, U-87 MG, 2 h, read-out: U87Cell IC50, pAkt (Ser 473), U87 MG cells, two hours with compound.

Chain of PI3Kα (P42336 whole entry): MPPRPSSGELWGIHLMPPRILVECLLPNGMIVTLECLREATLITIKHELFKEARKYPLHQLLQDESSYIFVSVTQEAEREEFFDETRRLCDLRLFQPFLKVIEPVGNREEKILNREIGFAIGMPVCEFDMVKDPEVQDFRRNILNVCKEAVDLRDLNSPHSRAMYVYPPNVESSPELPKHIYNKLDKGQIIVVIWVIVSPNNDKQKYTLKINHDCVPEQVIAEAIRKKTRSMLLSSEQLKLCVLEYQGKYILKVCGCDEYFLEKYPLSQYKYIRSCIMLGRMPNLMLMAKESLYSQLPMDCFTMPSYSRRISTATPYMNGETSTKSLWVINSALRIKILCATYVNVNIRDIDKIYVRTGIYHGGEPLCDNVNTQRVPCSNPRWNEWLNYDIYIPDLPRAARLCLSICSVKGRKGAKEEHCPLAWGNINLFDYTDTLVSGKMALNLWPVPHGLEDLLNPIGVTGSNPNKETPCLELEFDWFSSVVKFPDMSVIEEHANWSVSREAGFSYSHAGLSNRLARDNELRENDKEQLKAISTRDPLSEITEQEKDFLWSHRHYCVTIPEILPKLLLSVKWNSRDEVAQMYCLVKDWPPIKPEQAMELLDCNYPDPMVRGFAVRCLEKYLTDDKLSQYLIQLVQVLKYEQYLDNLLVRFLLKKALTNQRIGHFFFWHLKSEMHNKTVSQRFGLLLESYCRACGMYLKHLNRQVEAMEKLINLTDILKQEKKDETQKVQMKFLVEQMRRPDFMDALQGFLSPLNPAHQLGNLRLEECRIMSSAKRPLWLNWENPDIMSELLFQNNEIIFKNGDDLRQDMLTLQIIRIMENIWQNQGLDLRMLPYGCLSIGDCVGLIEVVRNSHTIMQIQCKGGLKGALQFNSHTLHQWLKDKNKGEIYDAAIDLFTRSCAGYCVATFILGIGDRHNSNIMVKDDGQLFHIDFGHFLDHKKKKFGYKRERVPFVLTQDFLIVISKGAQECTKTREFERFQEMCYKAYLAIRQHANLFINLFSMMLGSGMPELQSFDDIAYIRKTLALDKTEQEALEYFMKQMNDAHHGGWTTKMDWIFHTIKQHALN
Chain of PI3Kα (P27986 whole entry partner): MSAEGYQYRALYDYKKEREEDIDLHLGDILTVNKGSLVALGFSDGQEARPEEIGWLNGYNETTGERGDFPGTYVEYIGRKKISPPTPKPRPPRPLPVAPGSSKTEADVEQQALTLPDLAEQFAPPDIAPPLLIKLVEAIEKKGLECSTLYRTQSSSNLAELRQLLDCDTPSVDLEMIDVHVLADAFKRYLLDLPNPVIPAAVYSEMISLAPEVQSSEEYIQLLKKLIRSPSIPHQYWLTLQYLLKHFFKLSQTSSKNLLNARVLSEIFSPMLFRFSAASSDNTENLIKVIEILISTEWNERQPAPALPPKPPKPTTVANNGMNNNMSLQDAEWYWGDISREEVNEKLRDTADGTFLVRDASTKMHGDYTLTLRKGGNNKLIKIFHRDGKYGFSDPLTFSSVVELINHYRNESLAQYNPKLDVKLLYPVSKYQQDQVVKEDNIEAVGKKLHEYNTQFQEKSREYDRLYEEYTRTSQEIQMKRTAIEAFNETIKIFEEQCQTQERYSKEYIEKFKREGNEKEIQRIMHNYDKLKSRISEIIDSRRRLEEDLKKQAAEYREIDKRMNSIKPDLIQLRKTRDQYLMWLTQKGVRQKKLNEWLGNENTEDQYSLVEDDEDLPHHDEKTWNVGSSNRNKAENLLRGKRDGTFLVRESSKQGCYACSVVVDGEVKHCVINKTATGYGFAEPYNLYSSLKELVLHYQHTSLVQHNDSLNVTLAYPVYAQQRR
Chain of human mutant B-raf (HuBraf V600E) (P15056 whole entry V600E): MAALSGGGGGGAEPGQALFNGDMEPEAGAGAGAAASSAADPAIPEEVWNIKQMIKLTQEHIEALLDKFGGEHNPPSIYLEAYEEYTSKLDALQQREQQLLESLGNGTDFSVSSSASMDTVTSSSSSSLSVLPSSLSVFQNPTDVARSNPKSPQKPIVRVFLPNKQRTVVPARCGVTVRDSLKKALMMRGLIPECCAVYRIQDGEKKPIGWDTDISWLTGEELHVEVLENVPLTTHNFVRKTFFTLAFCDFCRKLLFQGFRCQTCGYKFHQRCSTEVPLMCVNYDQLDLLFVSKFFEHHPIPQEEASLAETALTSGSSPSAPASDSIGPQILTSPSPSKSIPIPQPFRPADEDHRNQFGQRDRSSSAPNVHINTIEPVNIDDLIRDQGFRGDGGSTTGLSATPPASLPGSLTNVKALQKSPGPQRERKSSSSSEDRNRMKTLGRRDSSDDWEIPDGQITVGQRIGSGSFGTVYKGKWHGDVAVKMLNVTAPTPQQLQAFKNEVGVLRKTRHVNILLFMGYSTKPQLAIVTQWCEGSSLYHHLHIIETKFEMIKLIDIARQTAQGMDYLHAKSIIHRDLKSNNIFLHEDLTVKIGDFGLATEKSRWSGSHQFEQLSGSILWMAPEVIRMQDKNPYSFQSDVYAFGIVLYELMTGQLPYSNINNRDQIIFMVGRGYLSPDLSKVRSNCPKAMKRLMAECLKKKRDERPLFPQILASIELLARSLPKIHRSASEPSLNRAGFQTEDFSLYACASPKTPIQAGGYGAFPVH

Turning to `CC(=O)Nc1ccc(Nc2ncccc2-c2ncnc3[nH]cnc23)cn1` [Example 16, N-(5-(3-(9H-Purin-6-yl)Pyridin-2-Ylamino)Pyridin-2-yl)Acetamide], the Ki at PI3Kα was greater than 1500 nM. Besides, in test [1], the “Mutant B-raf HTRF Assay POC Mean n = 2” value is listed as 42% of Control (POC). Taken in the same sequence, the figures for `Nc1ccc(Nc2ncccc2-c2ncnc3[nH]cnc23)cn1` [Example 17, N3-(3-(9H-Purin-6-yl)Pyridin-2-yl)Pyridine-3,6-Diamine] were greater than 1500 nM and 38% of Control (POC). Turning to `Cc1nc(N)nc(-c2cccnc2Nc2cccc3[nH]ncc23)n1` [Example 24, N-(3-(4-Amino-6-Methyl-1,3,5-Triazin-2-yl)Pyridin-2-yl)-1H-Indazol-4-Amine], in test [1], the “Mutant B-raf HTRF Assay POC Mean n = 2” value is 94% of Control (POC). Still for that read-out and setting: to `COc1ccc(Nc2ncccc2-c2nc(C)nc(N)n2)cn1` [Example 25, 4-(2-(6-Methoxypyridin-3-Ylamino)Pyridin-3-yl)-6-Methyl-1,3,5-Triazin-2-Amine] belongs 95% of Control (POC).

As for `Cc1nc(N)cc(-c2cccnc2Nc2cccc(O)c2)n1` [Example 26, 3-(3-(6-Amino-2-Methylpyrimidin-4-yl)Pyridin-2-Ylamino)Phenol], the Ki on PI3Kα was 24 nM. Also, the “Mutant B-raf HTRF Assay POC Mean n = 2” value in test [1] is recorded as 84% of Control (POC).

For the compound `COc1ccc(Nc2ncc(C)cc2-c2nc(C)nc(N)n2)cn1` [Example 31, 4-(2-(6-Methoxypyridin-3-Ylamino)-5-Methylpyridin-3-yl)-6-Methyl-1,3,5-Triazin-2-Amine], the “Mutant B-raf HTRF Assay POC Mean n = 2” value in test [1] is 97% of Control (POC). Still for that read-out and setting: then `COc1cnc(Nc2ccc(OC)nc2)c(-c2nc(C)nc(N)n2)c1` [Example 33, 4-(5-Methoxy-2-(6-Methoxypyridin-3-Ylamino)Pyridin-3-yl)-6-Methyl-1,3,5-Triazin-2-Amine], with 94% of Control (POC). Still for that read-out and setting: then `COc1ccc(Nc2ncc(CN3CCN(S(C)(=O)=O)CC3)cc2-c2nc(C)nc(N)n2)cn1` [Example 35, 4-(2-(6-methoxypyridin-3-ylamino)-5-((4-(methylsulfonyl)piperazin-1-yl)methyl)pyridin-3-yl)-6-methyl-1,3,5-triazin-2-amine], with 98% of Control (POC); and `COc1ccc(Nc2ncc(CN3CCNCC3)cc2-c2nc(C)nc(N)n2)cn1` [Example 41, 4-(2-(6-methoxypyridin-3-ylamino)-5-(piperazin-1-ylmethyl)pyridin-3-yl)-6-methyl-1,3,5-triazin-2-amine], with 96% of Control (POC). On the same count and under the same terms, to `COc1ccc(Nc2ncc(CN3CCOCC3)cc2-c2nc(C)nc(N)n2)cn1` [Example 44, 4-(2-(6-methoxypyridin-3-ylamino)-5-(morpholinomethyl)pyridin-3-yl)-6-methyl-1,3,5-triazin-2-amine] belongs 94% of Control (POC).

Consider `Cc1nc(-c2cccnc2Nc2cccc3[nH]ncc23)c2cn[nH]c2n1` [Example 55, N-(3-(6-methyl-1H-pyrazolo[3,4-d]pyrimidin-4-yl)pyridin-2-yl)-1H-indazol-4-amine], for which, on PI3Kα, the Ki stood at 1410 nM. In addition, in test [1], the “Mutant B-raf HTRF Assay POC Mean n = 2” value was 103% of Control (POC). For the compound `Cc1nc(-c2cccnc2Nc2cccc3[nH]ccc23)c2nc[nH]c2n1` [Example 56, N-(3-(2-methyl-9H-purin-6-yl)pyridin-2-yl)-1H-indol-4-amine], in test [1], the “Mutant B-raf HTRF Assay POC Mean n = 2” value is 58% of Control (POC). Take `Cc1nc(-c2cc(C(F)(F)F)cnc2Nc2cccc3[nH]ncc23)c2nc[nH]c2n1` [Example 65, N-(3-(2-Methyl-9H-Purin-6-yl)-5-(Trifluoromethyl)Pyridine-2-yl)-1H-Indazol-4-Amine]: the Ki on PI3Kα came to 119 nM. Further, the “Mutant B-raf HTRF Assay POC Mean n = 2” value in test [1] is on record as 85% of Control (POC).

Consider `C=Cc1cnc(Nc2ccc(OC)nc2)c(-c2nc(C)nc3[nH]cnc23)c1` [Example 73, N-(6-methoxypyridin-3-yl)-3-(2-methyl-9H-purin-6-yl)-5-vinylpyridin-2-amine], for which, in test [1], the “Mutant B-raf HTRF Assay POC Mean n = 2” value was 108% of Control (POC). Besides, the IC50 in test [2] stood at 554 nM. Turning to `Cc1nc(N)cc(-c2cnccc2Nc2cccc3[nH]ccc23)n1` [Example 109, N-(3-(6-amino-2-methylpyrimidin-4-yl)pyridin-4-yl)-1H-indol-4-amine], the “Mutant B-raf HTRF Assay POC Mean n = 2” value in test [1] is 35% of Control (POC). The IC50 in test [2] amounted to 821 nM.

As to `COc1ncc(Nc2ncc(CN3CCN(C(=O)N(C)C(C)C)CC3)cc2-c2nc(C)nc(N)n2)cc1F` [Example 357, 4-((5-(4-Amino-6-Methyl-1,3,5-Triazin-2-yl)-6-(5-Fluoro-6-Methoxypyridin-3-Ylamino)Pyridin-3-yl)Methyl)-N-Isopropyl-N-Methylpiperazine-1-Carboxamide], the Ki at PI3Kα stood at 14 nM. In addition, the IC50 in test [2] was found to be 83 nM. The corresponding values for `COc1ncc(Nc2ncc([C@@H](C)N3CCN(S(C)(=O)=O)C[C@@H]3C)cc2-c2nc(C)nc(N)n2)cn1` [Example 362, 4-(2-(2-Methoxypyrimidin-5-Ylamino)-5-((R)-1-((S)-2-Methyl-4-(Methylsulfonyl)Piperazin-1-yl)Ethyl)Pyridin-3-yl)-6-Methyl-1,3,5-Triazin-2-Amine] are 2 nM and 10 nM. The corresponding values for `Cc1nc(N)nc(-c2cc([C@@H](C)N3CCN(S(C)(=O)=O)C[C@@H]3C)cnc2Nc2ccc(Cl)nc2)n1` [Example 363, 4-(2-(6-Chloropyridin-3-Ylamino)-5-((R)-1-((S)-2-Methyl-4-(Methylsulfonyl)Piperazin-1-yl)Ethyl)Pyridin-3-yl)-6-Methyl-1,3,5-Triazin-2-Amine] are 15 nM and 31 nM. Turning to `COc1ncc(Nc2ncc(CN3CCN(S(C)(=O)=O)[C@H](C)C3)cc2-c2nc(C)nc(N)n2)cc1F` [Example 364, (R)-4-(2-(5-Fluoro-6-Methoxypyridin-3-Ylamino)-5-((3-Methyl-4-(Methylsulfonyl)Piperazin-1-yl)Methyl)Pyridin-3-yl)-6-Methyl-1,3,5-Triazin-2-Amine], the Ki at PI3Kα amounted to 5 nM. In test [2], the IC50 amounted to 7 nM. The corresponding values for `COc1cnc(Nc2cnc(Cl)c(N)c2)c(-c2nc(C)nc(N)n2)c1` [Example 368, N5-(3-(4-Amino-6-Methyl-1,3,5-Triazin-2-yl)-5-Methoxypyridin-2-yl)-2-Chloropyridine-3,5-Diamine] are 270 nM and 117 nM. As to `Cc1nc(N)nc(-c2cc(C(C)N3CCOCC3)cnc2Nc2cnc(Cl)c(NS(C)(=O)=O)c2)n1` (centres unmarked) [Example 369, N-(5-(3-(4-Amino-6-Methyl-1,3,5-Triazin-2-yl)-5-(1-Morpholinoethyl)Pyridin-2-Ylamino)-2-Chloropyridin-3-yl)Methanesulfonamide], on PI3Kα, the Ki worked out at 8 nM. Further, the IC50 in test [2] was determined as 9 nM. On to `Cc1nc(N)nc(-c2cc(C(C)N3CCOCC3)cnc2Nc2cnc(Cl)c(NS(=O)(=O)N(C)C)c2)n1` (centres unmarked) [Example 370, N-(5-(3-(4-Amino-6-Methyl-1,3,5-Triazin-2-yl)-5-(1-Morpholinoethyl)Pyridin-2-Ylamino)-2-Chloropyridin-3-yl)-N,N-Dimethylaminosulfamide], for which the Ki at PI3Kα was found to be 10 nM. Besides, the IC50 in test [2] stood at 3 nM.

`Cc1nc(N)nc(-c2cc([C@@H](C)N3CCOCC3)cnc2Nc2cnc(Cl)c(NS(=O)(=O)N(C)C)c2)n1` [Example 373, (R)—N-(5-(3-(4-Amino-6-Methyl-1,3,5-Triazin-2-yl)-5-(1-Morpholinoethyl)Pyridin-2-Ylamino)-2-Chloropyridin-3-yl)-N,N-Dimethylaminosulfamide]: the Ki at PI3Kα was 6 nM. In addition, the IC50 in test [2] stood at 1 nM.

Take `Cc1nc(N)nc(-c2cc([C@H](C)N3CCOCC3)cnc2Nc2cnc(Cl)c(NS(=O)(=O)N(C)C)c2)n1` [Example 374, (S)—N-(5-(3-(4-Amino-6-Methyl-1,3,5-Triazin-2-yl)-5-(1-Morpholinoethyl)Pyridin-2-Ylamino)-2-Chloropyridin-3-yl)-N,N-Dimethylaminosulfamide]: on PI3Kα, the Ki is 15 nM. In test [2], the IC50 came to 7 nM. Turning to `Cc1nc(N)cc(-c2cccnc2Nc2cnc(Cl)c(NS(=O)(=O)N(C)C)c2)n1` [Example 375, N-(5-(3-(6-Amino-2-Methylpyrimidin-4-yl)Pyridin-2-Ylamino)-2-Chloropyridin-3-yl)-N,N-Dimethylaminosulfamide], the Ki at PI3Kα was 152 nM. Also, the IC50 in test [2] was 175 nM. As for `COCCOc1cnc(Nc2cnc(C)c(NS(C)(=O)=O)c2)c(-c2nc(C)nc(N)n2)c1` [Example 376, N-(5-(3-(4-Amino-6-Methyl-1,3,5-Triazin-2-yl)-5-(2-Methoxyethoxy)Pyridin-2-Ylamino)-2-Methylpyridin-3-yl)Methanesulfonamide], the Ki on PI3Kα was determined as 71 nM. Moreover, the IC50 in test [2] amounted to 267 nM. On to `Cc1nc(N)nc(-c2cccnc2Nc2cnc(C)c(NS(C)(=O)=O)c2)n1` [Example 377, N-(5-(3-(4-Amino-6-Methyl-1,3,5-Triazin-2-yl)Pyridin-2-Ylamino)-2-Methylpyridin-3-yl)Methanesulfonamide], for which the Ki on PI3Kα was found to be 279 nM. For the same compound, the half-inhibitory concentration (IC50) in test [2] was 364 nM. For `C=Cc1cnc(Nc2cnc(Cl)c(NS(C)(=O)=O)c2)c(-c2cc(N)nc(C)n2)c1` [Example 380, N-(5-(3-(6-Amino-2-Methylpyrimidin-4-yl)-5-Vinylpyridin-2-Ylamino)-2-Chloropyridin-3-yl)Methanesulfonamide], the Ki on PI3Kα stood at 59 nM. The IC50 in test [2] amounted to 16 nM.

`COc1ncc(Nc2ncc(CN3CCN4C(CCS4(=O)=O)C3)cc2-c2nc(C)nc(N)n2)cc1F` (centres unmarked) [Example 383, 4-(5-((1,1-Dioxidohexahydro-5H-Isothiazolo[2,3-A]Pyrazin-5-yl)Methyl)-2-((5-Fluoro-6-Methoxy-3-Pyridinyl)Amino)-3-Pyridinyl)-6-Methyl-1,3,5-Triazin-2-Amine]: at PI3Kα, the Ki stood at 7 nM. The IC50 in test [2] was 8 nM.

As usually defined, the Ki is the equilibrium dissociation constant of an inhibitor or competing ligand from its target. As a reminder, the IC50 is the midpoint of a concentration-inhibition curve.

For the origin of these results see patent US8772480B2, “Inhibitors of PI3 kinase and/or mTOR” (priority 2009, dated 2014).
